From ChEMBL document CHEMBL5096229, “A 1,2,3-Triazole Derivative of Quinazoline Exhibits Antitumor Activity by Tethering RNF168 to SQSTM1/P62” (J Med Chem, 2022)
Activity calls are given as the source filed them. No cut-off for these calls is given here.

Experiments:
HepG2 = test: Cytotoxicity against human HepG2 cells assessed as reduction in cell viability incubated for 72 hrs by MTS assay; assay type: functional, cell-based; conditions: HepG2, 72 h
MDA-MB-231 = test: Cytotoxicity against human MDA-MB-231 cells assessed as reduction in cell viability incubated for 72 hrs by MTS assay; assay type: functional, cell-based; conditions: MDA-MB-231, 72 h
MGC-803 = test: Cytotoxicity against human MGC-803 cells assessed as reduction in cell viability incubated for 72 hrs by MTS assay; assay type: functional, cell-based; conditions: MGC-803, 72 h
A549 = test: Cytotoxicity against human A549 cells assessed as reduction in cell viability incubated for 72 hrs by MTS assay; assay type: functional, cell-based; conditions: A549, 72 h
[1] = Cytotoxicity against human MCF-10A cells assessed as reduction in cell viability incubated for 72 hrs by MTS assay; assay type: toxicity, cell-based
HCT-116 [2] = test: Cytotoxicity against human HCT-116 cells assessed as reduction in cell viability incubated for 72 hrs by MTS assay; assay type: functional, cell-based; conditions: HCT-116, 72 h
U2OS = test: Cytotoxicity against human U2OS cells assessed as reduction in cell viability incubated for 72 hrs by MTS assay; assay type: functional, cell-based
MCF7 = test: Cytotoxicity against human MCF7 cells assessed as reduction in cell viability incubated for 72 hrs by MTS assay; assay type: functional, cell-based; conditions: MCF7, 72 h
HeLa = test: Cytotoxicity against human HeLa cells assessed as reduction in cell viability incubated for 72 hrs by MTS assay; assay type: functional, cell-based
A-375 = test: Cytotoxicity against human A-375 cells assessed as reduction in cell viability incubated for 72 hrs by MTS assay; assay type: functional, cell-based; conditions: A-375, 72 h
HCT-116 [3] = test: Induction of cell cycle arrest in human HCT-116 cells assessed as accumulation at G0/G1 phase at IC50 concentration after 24 hrs by propidium iodide-staining based flow cytometry (reference value: 58.01 +/- 1.77%); assay type: functional
HCT-116 [4] = test: Induction of cell cycle arrest in human HCT-116 cells assessed as accumulation at S phase at IC50 concentration after 24 hrs by propidium iodide-staining based flow cytometry (reference value: 17.17 +/- 0.18%); assay type: functional
HCT-116 [5] = test: Induction of cell cycle arrest in human HCT-116 cells assessed as accumulation at G2/M phase at IC50 concentration after 24 hrs by propidium iodide-staining based flow cytometry (reference value: 23.25 +/- 1.38%); assay type: functional
HCT-116 [6] = test: Induction of autophagy in human HCT-116 cells assessed as increase in LC-3B puncta level measured after 12 to 24 hrs by immunofluorescence analysis; assay type: functional, cell-based; conditions: time 12-24 hrs
HCT-116 [7] = test: Induction of autophagy in human HCT-116 cells assessed as increase in p62 protein level measured after 12 to 24 hrs by Western blot analysis; assay type: functional, cell-based; conditions: time 12-24 hrs
Sequestosome-1 = Sequestosome-1 (Homo sapiens, UniProt Q13501); test: Binding affinity to P62 in human HCT-116 cells lysates at 10 uM incubated for 12 hrs by pull-down based immunoblot assay; assay type: subcellular; conditions: filed as activator
[8] = biological target: T1, E3 ubiquitin-protein ligase RNF168 (Homo sapiens, UniProt Q8IYW5); test: Binding affinity to RNF168 in human HCT-116 cells lysates at 10 uM by pull-down based immunoblot assay; assay type: subcellular; conditions: filed as activator
Bacteria [9] = test: Binding affinity to bacteria produced His tagged-P62 at 10 uM incubated for 12 hrs by pull-down based immunoblot assay; conditions: filed as activator
[10] = biological target: T1, E3 ubiquitin-protein ligase RNF168; test: Binding affinity to RNF168 (unknown origin) by MST assay
Bacteria [11] = test: Binding affinity to bacteria produced GST-tagged RNF168 at 10 uM by pull-down based immunoblot assay; conditions: filed as activator
HCT-116 [12] = test: Induction of cell cycle arrest in human HCT-116 cells assessed as accumulation at G2/M phase at 0.34 uM after 24 hrs by propidium iodide-staining based flow cytometry (reference value: 23.25 +/- 1.38%); assay type: functional
HCT-116 [13] = test: Induction of cell cycle arrest in human HCT-116 cells assessed as accumulation at S phase at 0.34 uM after 24 hrs by propidium iodide-staining based flow cytometry (reference value: 17.17 +/- 0.18%); assay type: functional
HCT-116 [14] = test: Induction of cell cycle arrest in human HCT-116 cells assessed as accumulation at G0/G1 phase at 0.34 uM after 24 hrs by propidium iodide-staining based flow cytometry (reference value: 58.01 +/- 1.77%); assay type: functional
HCT-116 [15] = test: Induction of apoptosis in human HCT-116 cells at 5 to 10 uM measured after 24 hrs by annexinV-FITC/propidium iodide staining based flow cytometry analysis; assay type: functional, cell-based; conditions: dose 5-10 µM

T1 sequence (Q8IYW5 whole entry): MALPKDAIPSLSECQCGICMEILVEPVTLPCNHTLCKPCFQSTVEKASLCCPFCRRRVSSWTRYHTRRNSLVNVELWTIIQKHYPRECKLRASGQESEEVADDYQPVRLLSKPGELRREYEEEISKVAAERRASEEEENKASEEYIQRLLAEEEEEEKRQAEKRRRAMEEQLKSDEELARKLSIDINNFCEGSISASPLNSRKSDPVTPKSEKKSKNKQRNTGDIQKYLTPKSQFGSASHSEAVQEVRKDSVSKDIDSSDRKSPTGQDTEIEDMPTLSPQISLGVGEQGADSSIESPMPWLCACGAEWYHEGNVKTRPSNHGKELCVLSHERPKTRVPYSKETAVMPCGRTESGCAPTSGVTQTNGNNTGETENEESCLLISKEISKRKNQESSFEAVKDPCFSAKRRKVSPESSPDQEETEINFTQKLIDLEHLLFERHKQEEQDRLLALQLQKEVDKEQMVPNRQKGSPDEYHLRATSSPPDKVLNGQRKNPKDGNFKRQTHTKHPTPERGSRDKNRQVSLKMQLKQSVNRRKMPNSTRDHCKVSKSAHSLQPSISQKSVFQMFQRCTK
Chain of Sequestosome-1 (Q13501 whole entry): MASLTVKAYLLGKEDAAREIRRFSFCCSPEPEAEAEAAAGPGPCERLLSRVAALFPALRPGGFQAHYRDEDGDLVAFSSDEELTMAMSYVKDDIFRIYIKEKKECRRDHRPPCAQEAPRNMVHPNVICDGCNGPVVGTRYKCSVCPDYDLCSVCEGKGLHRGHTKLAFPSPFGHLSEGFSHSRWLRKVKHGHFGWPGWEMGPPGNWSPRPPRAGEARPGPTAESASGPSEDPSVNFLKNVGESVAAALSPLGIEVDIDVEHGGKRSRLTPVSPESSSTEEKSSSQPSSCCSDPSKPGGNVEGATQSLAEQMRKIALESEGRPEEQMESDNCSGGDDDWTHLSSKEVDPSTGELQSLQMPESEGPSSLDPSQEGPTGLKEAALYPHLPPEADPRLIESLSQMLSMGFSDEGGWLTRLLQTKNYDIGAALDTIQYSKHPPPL

## Cc1nc2ccc(CN(C)c3ccc(C(=O)N[C@@H](CCC(=O)O)C(=O)O)s3)cc2c(=O)[nH]1 [RALTITREXED]
HepG2
  IC50: 9.63 µM
MDA-MB-231
  IC50: > 20 µM
MGC-803
  IC50: 9.52 µM
A549
  IC50: 0.81 µM
[1]
  IC50 at 72 h: > 20 µM
HCT-116 [2]
  IC50: 0.076 µM
U2OS
  IC50: > 20 µM
MCF7
  IC50: 10.9 µM
HeLa
  IC50: 5.51 µM
A-375
  IC50: 4.68 µM

## COc1ccc(OC)c(-n2cc(-c3ccc4nc(N)nc(N)c4c3)nn2)c1
A549
  IC50: 8.36 µM
HCT-116 [2]
  IC50: 3.09 µM

## Nc1nc(N)c2cc(-c3cn(-c4ccc(Cl)cc4)nn3)ccc2n1
A549
  IC50: 7.61 µM
HCT-116 [2]
  IC50: 2.15 µM

## O=c1[nH]cc(F)c(=O)[nH]1 [FLUOROURACIL]
MDA-MB-231
  IC50: 10.2 µM
HCT-116 [3]
  Activity: 34.65%
HCT-116 [4]
  Activity: 65.12%
MGC-803
  IC50: 7.54 µM
A549
  IC50: 4.52 µM
[1]
  IC50 at 72 h: > 20 µM
HCT-116 [5]
  Activity: 11.89%
HCT-116 [2]
  IC50: 4.89 µM
U2OS
  IC50: > 20 µM
MCF7
  IC50: > 20 µM
HeLa
  IC50: > 20 µM
A-375
  IC50: 3.52 µM

## N#Cc1ccc(-n2cc(-c3ccc4nc(N)nc(N)c4c3)nn2)cc1
A549
  IC50: > 20 µM
HCT-116 [2]
  IC50: > 20 µM

## Nc1nc(N)c2cc(-c3cn(-c4ccc(Br)cc4)nn3)ccc2n1
A549
  IC50: 2.14 µM
HCT-116 [2]
  IC50: 1.69 µM

## CCN(CC)CCCC(C)Nc1ccnc2cc(Cl)ccc12 (stereo not drawn)
HCT-116 [6]
  Activity: Active
HCT-116 [7]
  Activity: Active

## COc1cccc(-n2cc(-c3ccc4nc(N)nc(N)c4c3)nn2)c1
A549
  IC50: 3.27 µM
HCT-116 [2]
  IC50: 2.75 µM

## COc1cc(-n2cc(-c3ccc4nc(C)[nH]c(=O)c4c3)nn2)cc(OC)c1OC
A549
  IC50: > 20 µM
HCT-116 [2]
  IC50: > 20 µM

## COc1cc(-n2cc(-c3ccc4nc(N)nc(NCCCCCCNC(=O)CCCC[C@@H]5SC[C@@H]6NC(=O)N[C@@H]65)c4c3)nn2)cc(OC)c1OC
Sequestosome-1
  Activity: Active
[8]
  Activity: Active
Bacteria [9]
  Activity: Active
[10]
  Kd: 6.82 µM
Bacteria [11]
  Activity: Active

## COc1cc(OC)cc(-n2cc(-c3ccc4nc(N)nc(N)c4c3)nn2)c1
A549
  IC50: 4.74 µM
HCT-116 [2]
  IC50: 1.34 µM

## COc1ccc(-n2cc(-c3ccc4nc(N)nc(N)c4c3)nn2)c(OC)c1
A549
  IC50: > 20 µM
HCT-116 [2]
  IC50: 5.35 µM

## Nc1nc(N)c2cc(-c3cn(-c4ccc([N+](=O)[O-])cc4)nn3)ccc2n1
A549
  IC50: 7.83 µM
HCT-116 [2]
  IC50: 9.86 µM

## Nc1nc(N)c2cc(-c3cn(-c4ccc(O)cc4)nn3)ccc2n1
A549
  IC50: > 20 µM
HCT-116 [2]
  IC50: > 20 µM

## COC(=O)Nc1nc2cc(C(=O)c3cccs3)ccc2[nH]1 [NOCODAZOLE]
HCT-116 [12]
  Activity: 93.17%
HCT-116 [13]
  Activity: 7.11%
HCT-116 [14]
  Activity: 2.92%

## Nc1nc(N)c2cc(-n3cc(-c4ccccc4)nn3)ccc2n1
A549
  IC50: 6.65 µM
HCT-116 [2]
  IC50: 5.46 µM

## COc1cc(-n2cc(-c3ccc4nc(N)[nH]c(=O)c4c3)nn2)cc(OC)c1OC
A549
  IC50: > 20 µM
HCT-116 [2]
  IC50: > 20 µM

## COc1cc(-c2cn(-c3ccc4nc(N)nc(N)c4c3)nn2)cc(OC)c1OC
A549
  IC50: 1.88 µM
HCT-116 [2]
  IC50: 0.87 µM

## Nc1nc(N)c2cc(-c3cn(-c4ccc(F)cc4F)nn3)ccc2n1
A549
  IC50: 3.74 µM
HCT-116 [2]
  IC50: 3.29 µM

## COc1ccc(-n2cc(-c3ccc4nc(N)nc(N)c4c3)nn2)cc1O
A549
  IC50: > 20 µM
HCT-116 [2]
  IC50: > 20 µM

## Nc1nc(N)c2cc(-c3cn(-c4ccc(F)cc4)nn3)ccc2n1
A549
  IC50: 8.7 µM
HCT-116 [2]
  IC50: 2.89 µM

## COc1ccc(-n2cc(-c3ccc4nc(N)nc(N)c4c3)nn2)c([N+](=O)[O-])c1
A549
  IC50: 8.4 µM
HCT-116 [2]
  IC50: 8.04 µM

## Cc1ccc(-n2cc(-c3ccc4nc(N)nc(N)c4c3)nn2)cc1
A549
  IC50: 1.78 µM
HCT-116 [2]
  IC50: 2.46 µM

## COc1ccc(-n2cc(-c3ccc4nc(N)nc(N)c4c3)nn2)cc1
A549
  IC50: > 20 µM
HCT-116 [2]
  IC50: 2.44 µM

## Nc1nc(N)c2cc(-c3cn(-c4ccccc4)nn3)ccc2n1
A549
  IC50: 2.18 µM
HCT-116 [2]
  IC50: 1.93 µM

## CC[C@@]1(O)C(=O)OCc2c1cc1n(c2=O)Cc2cc3ccccc3nc2-1
HCT-116 [15]
  Activity: Active
